In PMC6753126, “Bidirectional transport of 2-chloroadenosine by equilibrative nucleoside transporter 4 (hENT4): Evidence for allosteric kinetics at acidic pH” (Scientific Reports, 2019):
pIC50: −log10 of the molar value. Like-named read-outs stand apart in the source and are kept apart here.

Experiments:
[1] = biological target: T1, equilibrative nucleoside transporter 4 (hENT4) (Homo sapiens, UniProt Q7RTT9); experiment: radiolabelled substrate uptake kinetics (Km, pH […] high-affinity component) and efflux in PK15-hENT4 cells; assay type: cell-based
T1 construct: gene SLC29A4
T1 sequence (Q7RTT9 1-530): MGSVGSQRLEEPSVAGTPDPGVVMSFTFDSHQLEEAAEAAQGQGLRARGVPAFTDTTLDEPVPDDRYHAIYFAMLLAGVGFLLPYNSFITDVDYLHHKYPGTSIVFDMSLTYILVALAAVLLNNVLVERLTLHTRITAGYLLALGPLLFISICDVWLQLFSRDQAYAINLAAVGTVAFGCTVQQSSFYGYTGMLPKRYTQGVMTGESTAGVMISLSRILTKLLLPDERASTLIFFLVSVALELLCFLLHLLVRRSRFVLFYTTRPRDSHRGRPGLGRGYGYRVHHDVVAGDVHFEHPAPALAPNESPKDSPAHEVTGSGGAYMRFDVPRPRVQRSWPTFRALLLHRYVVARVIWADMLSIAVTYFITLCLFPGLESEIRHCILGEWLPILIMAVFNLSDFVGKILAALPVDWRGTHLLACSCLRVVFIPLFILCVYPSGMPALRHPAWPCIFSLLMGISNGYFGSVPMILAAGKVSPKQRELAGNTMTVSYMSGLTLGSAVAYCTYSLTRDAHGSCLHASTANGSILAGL

[2] = biological target: T1, equilibrative nucleoside transporter 4 (hENT4); experiment: inhibition of [3H]2-chloroadenosine uptake at pH […] in PK15-hENT4 cells; assay type: cell-based

| pIC50 ([2]; read-out: IC50) | Compound | also measured |
| --- | --- | --- |
| – | Nc1nc(Cl)nc2c1ncn2[C@@H]1O[C@H](CO)[C@@H](O)[C@H]1O [2-CADO, 2-chloroadenosine] | Km [1]: ~50 µM |
| ~5.64 | CCN1/C(=C/c2ccc3ccccc3[n+]2CC)C=Cc2ccccc21 [D22, decynium 22] | – |
| – | C[n+]1ccc(-c2ccccc2)cc1 [MPP+, MPP^+] | pIC50 [2]: 3.66 |
| ~5.64 | TC-T6000 | – |
